From PMC10530652 (BME Frontiers, 2021)

Legend:
[1] = test system: MMP activity in the alveolar space; assay: In-human alveolar FCFM imaging after endobronchial delivery of FIB One; format: in vivo; conditions: FIB One microdose <100 μg, bolus, patients with parenchymal fibrosis, n=4
Protocol: All participants were scheduled for routine, clinical diagnostic flexible bronchoscopy in our institution with a known or suspected diagnosis of fibrosis or lung cancer. All eight patients had computerized tomography performed prior to bronchoscopy and regions of active disease identified for targeted investigation.
Bronchoscopy was undertaken in an outpatient suite using local anaesthetic and conscious sedation or in theatre under general anaesthetic. FCFM was performed using a clinically approved confocal laser scanning endomicroscopy device (Cellvizio®, Mauna Kea Technologies) with a compatible imaging fibre (Alveoflex™ or Miniaturized Alveoflex™, Mauna Kea Technologies).
In initial exploratory testing, 8 patients with either endobronchial tumour or parenchymal fibrosis underwent FIB One microdosing (<100 μg, <5 mL). […] Images were recorded for at least 30 s at 12 frames/second.
All video sequences were assessed by two clinicians with clinical experience of pulmonary endomicroscopy. […] Videos were assessed to ensure stability throughout the imaging procedure. […] All video files were analysed using the Cellvizio® Viewer image processing software from Mauna Kea Technologies, Paris. […] The median RFU was calculated for each category and used as a comparative value between groups.

[2] = test system: patients with fibroproliferative lung disease; assay: Adverse events in the FIB One clinical study; format: in vivo, human
Protocol: In initial exploratory testing, 8 patients with either endobronchial tumour or parenchymal fibrosis underwent FIB One microdosing (<100 μg, <5 mL). FIB One was administered using a delivery catheter (ERBE APC catheter or TLBC) passed out of the working channel of the wedged bronchoscope into the bronchus allowing distal dissipation of the compound for alveolar imaging or applied directly onto visible tumour. FCFM imaging was performed pre- and postinstillation of FIB One, with the fibre tip positioned at the bronchial mucosa or passed into the alveolar region following transbronchial puncture, as appropriate for the clinical indication. Images were recorded for at least 30 s at 12 frames/second.
In subsequent testing the Miniaturized Alveoflex™-TLBC combination replaced the Alveoflex™ fibre. The entire apparatus was passed transbronchially to allow direct alveolar imaging before localised delivery of agents. Once transbronchial pass was accomplished, baseline lung imaging was recorded for at least 30 sec. A 500 μL microdose of either AZD1236 (14 μg/mL) or sterile PBS (control) was administered under direct observation, and further imaging was obtained for >60 sec. 500 μL of FIB One (20 μg/mL) (delivered only after at least 60s to allow MMP inhibition) was then dosed to the same area with a further 90-120 sec of imaging captured. If considerable movement due to breathing or coughing was encountered, imaging was halted and a new segment identified. Up to 6 segments of interest were investigated per patient determined by patient tolerance.
Table S5: Patient demographics and AEs part B. Three patients reported adverse events within the 24h period post procedure all of which are commonly associated with flexible bronchoscopy.

[3] = test system: stimulated human neutrophils; assay: FIB One cleavage in supernatant from stimulated neutrophils; format: cell-based; conditions: FIB One 1 μM, 10 min incubation with neutrophil supernatant
Protocol: Neutrophils were isolated from the blood of healthy human volunteers as previously described. The number of retrieved neutrophils was determined with NucleoCounter NC-1000 (Chemo Metec). Neutrophils were resuspended at a concentration of 20×10^6 mL^-1 in 0.9% NaCl with 0.9 mM CaCl2. Cells were incubated for 30 min at 37°C. Cells to be stimulated were subsequently activated with 5 μM calcium ionophore A23187 (Tocris Bioscience) for 30 min at 37°C. Neutrophils were harvested by centrifugation at 400 x g for 5 min. Supernatants were removed and stored. Plate reader assays were performed as described above, with the MMP buffer replaced with neutrophil supernatant. All experiments were carried out in duplicate using three independent donors (one donor per independent repeat). Data were normalised by background subtraction of intrinsic fluorescence.

[4] = Stability study of AZD1236 aqueous formulation (HPLC); format: physicochemical; conditions: for Conc. / pH: aqueous formulation; for Conc. / Total imp. RRT(%): HPLC; for ∆%: relative to starting concentration of 70µg/5mL
Protocol: Summary table of stability as assessed by HPLC over 24 months stored under GMP conditions at RT. Data shown in blue represents inverted position vials. ∆% is relative to starting concentration of 70µg/5mL at time zero. Acceptance criteria: Retention time (RT) for AZD1236 is 3.97 min (Range 3.40-4.50 min). Total impurities – report as RRT (%) for each impurity. Biological functionality LOD = >21µg/5mL. pH 7.5 (7.0-8.0).

[5] = room temperature, 12m, 1st of 2 vials
[6] = room temperature, 12m, 2nd of 2 vials
[7] = room temperature, 18m, 1st of 2 vials
[8] = room temperature, 18m, 2nd of 2 vials
[9] = room temperature, 24m, 1st of 2 vials
[10] = room temperature, 24m, 2nd of 2 vials
[11] = room temperature, 1m, 1st of 2 vials
[12] = room temperature, 1m, 2nd of 2 vials
[13] = room temperature, 3m, 1st of 2 vials
[14] = room temperature, 3m, 2nd of 2 vials
[15] = room temperature, 6m, 1st of 2 vials
[16] = room temperature, 6m, 2nd of 2 vials
[17] = room temperature, 10.5m, 1st of 2 vials
[18] = room temperature, 10.5m, 2nd of 2 vials
[19] = room temperature, 24h, 1st of 2 vials
[20] = room temperature, 24h, 2nd of 2 vials
[21] = room temperature, 15d, 1st of 2 vials
[22] = room temperature, 15d, 2nd of 2 vials

Q: With (Pro-Phe-Gly-Nle-Lys-βAla)3 [FIB One] as the substance, how does the “alveolar FCFM fluorescent signal following endobronchial delivery” value [1] read?
A: Its value is “increased fluorescent signal”.

Q: What about the “Adverse Events” value ([2]; Part A, one line per patient DO01-DO08, FIB One microdose <100 μg) of the same substance?
A: Its value is “Nil and Haemoptysis and Cough and Fever”.

Q: And the “Adverse Events” value ([2]; Part B, one line per patient DO09-DO17, FIB One with or without AZD1236 via TLBC, within 24h post procedure)?
A: The value was “Nil and Cough and Cough Fever and Haemoptysis”.

Q: And the significant adverse events ([2]; eight patients, endobronchial FIB One bolus)?
A: The significant adverse events was “no significant adverse events”.

Q: What about the “cleavage of FIB One” value [3] of the same substance?
A: The value was “cleaved”.

Q: What does the source list for AZD1236?
A: biological functionality in aqueous formulation ([4]; 24 months, GMP conditions at RT, biological functionality LOD = >21µg/5mL): remains biologically functional; degradation in aqueous formulation of the drug product (HPLC traces) ([4]; after 24 months, stored at ambient temperature): no degradation; Conc. ([4]; room temperature, 1m, 1st of 2 vials (one inverted)): 77.0 µg per 5mL; Conc. ([4]; room temperature, 1m, 2nd of 2 vials (one inverted)): 76.8 µg per 5mL; Conc. ([4]; room temperature, 3m, 1st of 2 vials (one inverted)): 69.4 µg per 5mL; Conc. ([4]; room temperature, 3m, 2nd of 2 vials (one inverted)): 69.4 µg per 5mL; Conc. ([4]; room temperature, 6m, 1st of 2 vials (one inverted)): 70.8 µg per 5mL; Conc. ([4]; room temperature, 6m, 2nd of 2 vials (one inverted)): 70.6 µg per 5mL; Conc. ([4]; room temperature, 10.5m, 1st of 2 vials (one inverted)): 71.1 µg per 5mL; Conc. ([4]; room temperature, 10.5m, 2nd of 2 vials (one inverted)): 70.7 µg per 5mL; pH [4, 5]: 7.5; pH [4, 6]: 7.5; Conc. ([4]; room temperature, 12m, 1st of 2 vials (one inverted)): 70.0 µg per 5mL; Conc. ([4]; room temperature, 12m, 2nd of 2 vials (one inverted)): 69.2 µg per 5mL; pH [4, 7]: 7.5; pH [4, 8]: 7.5; Conc. ([4]; room temperature, 18m, 1st of 2 vials (one inverted)): 70.4 µg per 5mL; Conc. ([4]; room temperature, 18m, 2nd of 2 vials (one inverted)): 70.2 µg per 5mL; pH [4, 9]: 7.5; pH [4, 10]: 7.5; Conc. ([4]; room temperature, 24m, 1st of 2 vials (one inverted)): 72.96 µg per 5mL; Conc. ([4]; room temperature, 24m, 2nd of 2 vials (one inverted)): 72.52 µg per 5mL; Conc. ([4]; room temperature, 24h, 1st of 2 vials (one inverted)): 74.3 µg per 5mL; Conc. ([4]; room temperature, 24h, 2nd of 2 vials (one inverted)): 74.5 µg per 5mL; Conc. ([4]; room temperature, 15d, 1st of 2 vials (one inverted)): 70.2 µg per 5mL; Conc. ([4]; room temperature, 15d, 2nd of 2 vials (one inverted)): 70.3 µg per 5mL; pH ([4]; timepoint 0): 7.5; ∆% [4, 11]: +10.0%; ∆% [4, 12]: +9.70%; ∆% [4, 13]: -0.90%; ∆% [4, 14]: -0.90%; ∆% [4, 15]: +1.00%; ∆% [4, 16]: +0.80%; ∆% [4, 17]: +1.50%; ∆% [4, 18]: +1.00%; ∆% [4, 5]: +0.00%; ∆% [4, 6]: -1.15%; ∆% [4, 7]: +0.6%; ∆% [4, 8]: +0.3%; ∆% [4, 9]: +4.2%; ∆% [4, 10]: +3.6%; ∆% [4, 19]: +6.0%; ∆% [4, 20]: +6.0%; ∆% [4, 21]: +0.14%; ∆% [4, 22]: +0.21%; Total imp. RRT(%) [4, 11]: ND/NQ ND/NQ; Total imp. RRT(%) [4, 12]: ND/NQ ND/NQ; Total imp. RRT(%) [4, 13]: ND/NQ ND/NQ; Total imp. RRT(%) [4, 14]: ND/NQ ND/NQ; Total imp. RRT(%) [4, 15]: ND/NQ ND/NQ; Total imp. RRT(%) [4, 16]: ND/NQ ND/NQ; Total imp. RRT(%) [4, 17]: ND/NQ ND/NQ; Total imp. RRT(%) [4, 18]: ND/NQ ND/NQ; Total imp. RRT(%) [4, 5]: ND/NQ ND/NQ; Total imp. RRT(%) [4, 6]: ND/NQ ND/NQ; Total imp. RRT(%) [4, 7]: ND/NQ ND/NQ; Total imp. RRT(%) [4, 8]: ND/NQ ND/NQ; Total imp. RRT(%) [4, 9]: ND/NQ ND/NQ; Total imp. RRT(%) [4, 10]: ND/NQ ND/NQ; Total imp. RRT(%) [4, 19]: ND/NQ ND/NQ; Total imp. RRT(%) [4, 20]: ND/NQ ND/NQ; Total imp. RRT(%) [4, 21]: ND/NQ ND/NQ; Total imp. RRT(%) [4, 22]: ND/NQ ND/NQ
